Laboratory results: patent US20060130172A1, “Gene encoding resistance to acetolactate synthase-inhibiting herbicides” (priority 2003, published 2006)

Columns and labels:
R11-AMACH smooth pigweed = experiment: Greenhouse screen of ALS-inhibiting herbicides on resistant smooth pigweed biotype; format: in vivo, Amaranthus hybridus L.; conditions: 3 WAT; for Biomass Reduction: compared to untreated plant biomass; for Biomass: plant dry weight; for Visual Control: scale 0-99%
Description: (§1) Seeds from a smooth pigweed (Aniaranthus hybridus L.) population (R11-AMACH) were collected from a field in southeastern Pennsylvania where extreme ALS-inhibitor herbicide selection pressure was imposed over a several year period within continuous soybean production. R11-AMACH was selected naturally with ALS-inhibiting herbicides representative of the SU, IMI, and TP herbicide chemistries.
(§2) To establish levels and patterns of ALS resistance, R11-AMACH and an ALS susceptible smooth pigweed biotype (S-AMACH) were screened in the greenhouse with various rates of the ALS-inhibiting herbicides, chlorimuron (SU), thifensulfuron (SU), imazethapyr (IMI), pyrithiobac (POB), and cloransulam-methyl (TP). Rates evaluated were based on a log10 scale that included 0, 1/100×, 1/10×, 1×, 10×, and 100×, where 1× corresponds to the normal use rate in the field. R11-AMACH responded differently to the rate increase as compared to S-AMACH. […] Visual control, height, biomass, and biomass reduction are presented separately for chlorimuron (Table 3), thifensulfuron (Table 4), imazethapyr (Table 5), pyrithiobac (Table 6), and cloransulam (Table 7). Evaluations and measurements were recorded 3 weeks after herbicide treatment (WAT). Visual control was based on a scale of 0-99%, where 0% represents no control and 99% represents complete control. Biomass represents plant dry weights recorded several days after plants were harvested. Biomass reduction was calculated based on the amount of biomass reduced by herbicide treatment compared to the untreated plant biomass.

S-AMACH smooth pigweed = experiment: Greenhouse screen of ALS-inhibiting herbicides on susceptible smooth pigweed biotype; format: in vivo, Amaranthus hybridus L.; conditions: 3 WAT; for Biomass Reduction: compared to untreated plant biomass; for Biomass: plant dry weight; for Visual Control: scale 0-99%
Description: as §1, §2

[1] = rate 1/100× (1× = normal use rate in the field)

COc1cc(Cl)nc(NC(=O)NS(=O)(=O)c2ccccc2C(=O)O)n1 [chlorimuron, 2-[[[[(4-chloro-6-methoxy-2-pyrimidinyl)-amino]carbonyl]amino]-sulfonyl]benzoic acid]
Height (R11-AMACH smooth pigweed; rate 1/10×): 26.5 cm
Biomass Reduction (R11-AMACH smooth pigweed; rate 1/10×): 3.7%
Biomass (R11-AMACH smooth pigweed; rate 1/10×): 3.66 g
Visual Control (R11-AMACH smooth pigweed; rate 1/10×): 6%
Visual Control (R11-AMACH smooth pigweed; [1]): 5%
Height (R11-AMACH smooth pigweed; rate 1/100×): 23.5 cm
Biomass Reduction (R11-AMACH smooth pigweed; rate 1/100×): 10.0%
Biomass (R11-AMACH smooth pigweed; rate 1/100×): 3.42 g
Visual Control (R11-AMACH smooth pigweed; rate 1× (normal use rate)): 15%
Height (R11-AMACH smooth pigweed; rate 1×): 21.8 cm
Biomass Reduction (R11-AMACH smooth pigweed; rate 1×): 3.5%
Biomass (R11-AMACH smooth pigweed; rate 1×): 3.67 g
Height (R11-AMACH smooth pigweed; rate 10×): 23.5 cm
Biomass Reduction (R11-AMACH smooth pigweed; rate 10×): 17.1%
Biomass (R11-AMACH smooth pigweed; rate 10×): 3.15 g
Visual Control (R11-AMACH smooth pigweed; rate 10×): 18%
Height (R11-AMACH smooth pigweed; rate 100×): 14.8 cm
Biomass Reduction (R11-AMACH smooth pigweed; rate 100×): 56.8%
Biomass (R11-AMACH smooth pigweed; rate 100×): 1.64 g
Visual Control (R11-AMACH smooth pigweed; rate 100×): 39%
Height (S-AMACH smooth pigweed; rate 1/10×): 14.3 cm
Biomass Reduction (S-AMACH smooth pigweed; rate 1/10×): 52.0%
Biomass (S-AMACH smooth pigweed; rate 1/10×): 1.65 g
Visual Control (S-AMACH smooth pigweed; rate 1/10×): 20%
Height (S-AMACH smooth pigweed; rate 1/100×): 27.8 cm
Biomass Reduction (S-AMACH smooth pigweed; rate 1/100×): 30.9%
Biomass (S-AMACH smooth pigweed; rate 1/100×): 2.37 g
Visual Control (S-AMACH smooth pigweed; rate 1/100×): 9%
Visual Control (S-AMACH smooth pigweed; rate 1× (normal use rate)): 81%
Height (S-AMACH smooth pigweed; rate 1×): 4.8 cm
Biomass Reduction (S-AMACH smooth pigweed; rate 1×): 95.8%
Biomass (S-AMACH smooth pigweed; rate 1×): 0.14 g
Height (S-AMACH smooth pigweed; rate 10×): 1.0 cm
Biomass Reduction (S-AMACH smooth pigweed; rate 10×): 98.6%
Biomass (S-AMACH smooth pigweed; rate 10×): 0.05 g
Visual Control (S-AMACH smooth pigweed; rate 10×): 99%
Height (S-AMACH smooth pigweed; rate 100×): 1.3 cm
Biomass Reduction (S-AMACH smooth pigweed; rate 100×): 96.7%
Biomass (S-AMACH smooth pigweed; rate 100×): 0.11 g
Visual Control (S-AMACH smooth pigweed; rate 100×): 99%

CCOc1nc(F)cc2nc(S(=O)(=O)Nc3c(Cl)cccc3C(=O)OC)nn12 [cloransulammethyl]
Height (R11-AMACH smooth pigweed; rate 1/10×): 34.5 cm
Biomass Reduction (R11-AMACH smooth pigweed; rate 1/10×): 24.7%
Biomass (R11-AMACH smooth pigweed; rate 1/10×): 8.16 g
Visual Control (R11-AMACH smooth pigweed; rate 1/10×): 23%
Visual Control (R11-AMACH smooth pigweed; [1]): 0%
Height (R11-AMACH smooth pigweed; rate 1/100×): 47.8 cm
Biomass Reduction (R11-AMACH smooth pigweed; rate 1/100×): 0.5%
Biomass (R11-AMACH smooth pigweed; rate 1/100×): 10.78 g
Visual Control (R11-AMACH smooth pigweed; rate 1× (normal use rate)): 16%
Height (R11-AMACH smooth pigweed; rate 1×): 37.6 cm
Biomass Reduction (R11-AMACH smooth pigweed; rate 1×): 30.8%
Biomass (R11-AMACH smooth pigweed; rate 1×): 7.49 g
Height (R11-AMACH smooth pigweed; rate 10×): 32.0 cm
Biomass Reduction (R11-AMACH smooth pigweed; rate 10×): 40.5%
Biomass (R11-AMACH smooth pigweed; rate 10×): 6.44 g
Visual Control (R11-AMACH smooth pigweed; rate 10×): 39%
Height (R11-AMACH smooth pigweed; rate 100×): 12.2 cm
Biomass Reduction (R11-AMACH smooth pigweed; rate 100×): 75.3%
Biomass (R11-AMACH smooth pigweed; rate 100×): 2.68 g
Visual Control (R11-AMACH smooth pigweed; rate 100×): 63%
Height (S-AMACH smooth pigweed; rate 1/10×): 3.6 cm
Biomass Reduction (S-AMACH smooth pigweed; rate 1/10×): 97.1%
Biomass (S-AMACH smooth pigweed; rate 1/10×): 0.25 g
Visual Control (S-AMACH smooth pigweed; rate 1/10×): 91%
Height (S-AMACH smooth pigweed; rate 1/100×): 0.7 cm
Biomass Reduction (S-AMACH smooth pigweed; rate 1/100×): 99.8%
Biomass (S-AMACH smooth pigweed; rate 1/100×): 0.02 g
Visual Control (S-AMACH smooth pigweed; rate 1/100×): 97%
Visual Control (S-AMACH smooth pigweed; rate 1× (normal use rate)): 96%
Height (S-AMACH smooth pigweed; rate 1×): 1.3 cm
Biomass Reduction (S-AMACH smooth pigweed; rate 1×): 99.1%
Biomass (S-AMACH smooth pigweed; rate 1×): 0.08 g
Height (S-AMACH smooth pigweed; rate 10×): 0.0 cm
Biomass Reduction (S-AMACH smooth pigweed; rate 10×): 100.0%
Biomass (S-AMACH smooth pigweed; rate 10×): 0.00 g
Visual Control (S-AMACH smooth pigweed; rate 10×): 99%
Height (S-AMACH smooth pigweed; rate 100×): 0.0 cm
Biomass Reduction (S-AMACH smooth pigweed; rate 100×): 100.0%
Biomass (S-AMACH smooth pigweed; rate 100×): 0.00 g
Visual Control (S-AMACH smooth pigweed; rate 100×): 99%

CCc1cnc(C2=NC(C)(C(C)C)C(=O)N2)c(C(=O)O)c1 (stereo not shown) [imazethapyr, 2-[4,5-dihydro-4-methyl-4-(1-methylethyl)-5-oxo-1H-imidazol-2-yl]-5-ethyl-3-pyridinecarboxylic acid]
Height (R11-AMACH smooth pigweed; rate 1/10×): 28.0 cm
Biomass Reduction (R11-AMACH smooth pigweed; rate 1/10×): 21.1%
Biomass (R11-AMACH smooth pigweed; rate 1/10×): 3.00 g
Visual Control (R11-AMACH smooth pigweed; rate 1/10×): 9%
Visual Control (R11-AMACH smooth pigweed; [1]): 2%
Height (R11-AMACH smooth pigweed; rate 1/100×): 32.8 cm
Biomass Reduction (R11-AMACH smooth pigweed; rate 1/100×): −8.2%
Biomass (R11-AMACH smooth pigweed; rate 1/100×): 4.11 g
Visual Control (R11-AMACH smooth pigweed; rate 1× (normal use rate)): 16%
Height (R11-AMACH smooth pigweed; rate 1×): 20.3 cm
Biomass Reduction (R11-AMACH smooth pigweed; rate 1×): 31.0%
Biomass (R11-AMACH smooth pigweed; rate 1×): 2.62 g
Height (R11-AMACH smooth pigweed; rate 10×): 6.8 cm
Biomass Reduction (R11-AMACH smooth pigweed; rate 10×): 86.8%
Biomass (R11-AMACH smooth pigweed; rate 10×): 0.50 g
Visual Control (R11-AMACH smooth pigweed; rate 10×): 62%
Height (R11-AMACH smooth pigweed; rate 100×): 3.3 cm
Biomass Reduction (R11-AMACH smooth pigweed; rate 100×): 96.1%
Biomass (R11-AMACH smooth pigweed; rate 100×): 0.15 g
Visual Control (R11-AMACH smooth pigweed; rate 100×): 95%
Height (S-AMACH smooth pigweed; rate 1/10×): 10.3 cm
Biomass Reduction (S-AMACH smooth pigweed; rate 1/10×): 81.6%
Biomass (S-AMACH smooth pigweed; rate 1/10×): 0.63 g
Visual Control (S-AMACH smooth pigweed; rate 1/10×): 58%
Height (S-AMACH smooth pigweed; rate 1/100×): 25.3 cm
Biomass Reduction (S-AMACH smooth pigweed; rate 1/100×): 42.3%
Biomass (S-AMACH smooth pigweed; rate 1/100×): 1.98 g
Visual Control (S-AMACH smooth pigweed; rate 1/100×): 12%
Visual Control (S-AMACH smooth pigweed; rate 1× (normal use rate)): 97%
Height (S-AMACH smooth pigweed; rate 1×): 2.3 cm
Biomass Reduction (S-AMACH smooth pigweed; rate 1×): 98.3%
Biomass (S-AMACH smooth pigweed; rate 1×): 0.06 g
Height (S-AMACH smooth pigweed; rate 10×): 0.3 cm
Biomass Reduction (S-AMACH smooth pigweed; rate 10×): 97.1%
Biomass (S-AMACH smooth pigweed; rate 10×): 0.10 g
Visual Control (S-AMACH smooth pigweed; rate 10×): 99%
Height (S-AMACH smooth pigweed; rate 100×): 2.3 cm
Biomass Reduction (S-AMACH smooth pigweed; rate 100×): 98.3%
Biomass (S-AMACH smooth pigweed; rate 100×): 0.06 g
Visual Control (S-AMACH smooth pigweed; rate 100×): 95%

COc1cc(OC)nc(Sc2cccc(Cl)c2C(=O)O)n1 [pyrithiobac, 2-chloro-6-[(4,6-dimethoxy-2-pyrimidinyl)thio]benzoic acid]
Height (R11-AMACH smooth pigweed; rate 1/10×): 22.0 cm
Biomass Reduction (R11-AMACH smooth pigweed; rate 1/10×): 36.3%
Biomass (R11-AMACH smooth pigweed; rate 1/10×): 2.42 g
Visual Control (R11-AMACH smooth pigweed; rate 1/10×): 21%
Visual Control (R11-AMACH smooth pigweed; [1]): 7%
Height (R11-AMACH smooth pigweed; rate 1/100×): 26.5 cm
Biomass Reduction (R11-AMACH smooth pigweed; rate 1/100×): 26.8%
Biomass (R11-AMACH smooth pigweed; rate 1/100×): 2.78 g
Visual Control (R11-AMACH smooth pigweed; rate 1× (normal use rate)): 30%
Height (R11-AMACH smooth pigweed; rate 1×): 17.8 cm
Biomass Reduction (R11-AMACH smooth pigweed; rate 1×): 37.4%
Biomass (R11-AMACH smooth pigweed; rate 1×): 2.38 g
Height (R11-AMACH smooth pigweed; rate 10×): 11.0 cm
Biomass Reduction (R11-AMACH smooth pigweed; rate 10×): 71.8%
Biomass (R11-AMACH smooth pigweed; rate 10×): 1.07 g
Visual Control (R11-AMACH smooth pigweed; rate 10×): 48%
Height (R11-AMACH smooth pigweed; rate 100×): 2.5 cm
Biomass Reduction (R11-AMACH smooth pigweed; rate 100×): 98.2%
Biomass (R11-AMACH smooth pigweed; rate 100×): 0.07 g
Visual Control (R11-AMACH smooth pigweed; rate 100×): 97%
Height (S-AMACH smooth pigweed; rate 1/10×): 8.8 cm
Biomass Reduction (S-AMACH smooth pigweed; rate 1/10×): 89.2%
Biomass (S-AMACH smooth pigweed; rate 1/10×): 0.37 g
Visual Control (S-AMACH smooth pigweed; rate 1/10×): 59%
Height (S-AMACH smooth pigweed; rate 1/100×): 21.8 cm
Biomass Reduction (S-AMACH smooth pigweed; rate 1/100×): 49.6%
Biomass (S-AMACH smooth pigweed; rate 1/100×): 1.73 g
Visual Control (S-AMACH smooth pigweed; rate 1/100×): 16%
Visual Control (S-AMACH smooth pigweed; rate 1× (normal use rate)): 99%
Height (S-AMACH smooth pigweed; rate 1×): 2.0 cm
Biomass Reduction (S-AMACH smooth pigweed; rate 1×): 98.0%
Biomass (S-AMACH smooth pigweed; rate 1×): 0.07 g
Height (S-AMACH smooth pigweed; rate 10×): 1.8 cm
Biomass Reduction (S-AMACH smooth pigweed; rate 10×): 96.5%
Biomass (S-AMACH smooth pigweed; rate 10×): 0.12 g
Visual Control (S-AMACH smooth pigweed; rate 10×): 99%
Height (S-AMACH smooth pigweed; rate 100×): 0.5 cm
Biomass Reduction (S-AMACH smooth pigweed; rate 100×): 98.8%
Biomass (S-AMACH smooth pigweed; rate 100×): 0.04 g
Visual Control (S-AMACH smooth pigweed; rate 100×): 99%
